Patent publication US4666908A, “5-Substituted pyrazolo[4,3-d]pyrimidine-7-ones and methods of use” (Warner-Lambert Company, priority 1985, dated 1987)
Read-outs that look alike come from different tables or passages of the source.

Tests used:
Type 1 Phosphodiesterase = assay: Phosphodiesterase (PDE) Inhibition, Type 1 Phosphodiesterase; format: biochemical, bovine (coronary arteries); settings: Type 1 PDE, at 10^-5 M
In short: (§1)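 PDEs isolated from bovine coronary artery by DEAE-cellulose chromatography, fractions typed by cAMP/cGMP hydrolysis ± calmodulin/CaCl2. Assay in 40 mM Tris-HCl (pH 8.0), 5 mM MgCl, 4 mM 2-mercaptoethanol with 1.0 μM ^3H-cyclic AMP or ^3H-cyclic GMP; final DMSO 1.25% (smooth muscle) or 2.5% (cardiac, platelet).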

adenosine A1 receptor = molecular target: T1, adenosine A1 receptor (Rattus norvegicus, UniProt P25099); assay: Adenosine Receptor Binding - A1 Receptor Affinity (RBA1), [3H]-N6-cyclohexyladenosine displacement; settings: [3H]-CHA 1.0 nM, rat brain membranes, 25° C., one hour; read-out: RBA-1, IC50 for adenosine A1 receptor affinity
T1 construct: Whole brain minus cerebellum and brainstem from male Long Evans rats; from tissue; host or cells: whole brain minus cerebellum and brainstem, male Long Evans rats (membranes)
T1 sequence (P25099 1-326): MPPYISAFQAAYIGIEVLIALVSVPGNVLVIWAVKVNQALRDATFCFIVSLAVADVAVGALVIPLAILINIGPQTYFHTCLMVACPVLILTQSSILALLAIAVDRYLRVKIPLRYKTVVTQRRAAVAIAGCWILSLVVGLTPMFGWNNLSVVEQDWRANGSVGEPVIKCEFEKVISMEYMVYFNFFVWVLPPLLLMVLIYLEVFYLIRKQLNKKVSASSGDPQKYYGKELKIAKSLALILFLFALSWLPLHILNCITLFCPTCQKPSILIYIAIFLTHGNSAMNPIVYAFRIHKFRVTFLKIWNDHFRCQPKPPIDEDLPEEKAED
In short: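 Rat forebrain membranes (whole brain minus cerebellum and brainstem, male Long Evans) washed in 0.05 M Tris-HCl pH 7.7, used at 20 mg/ml wet tissue. Bound [3H]-N6-cyclohexyladenosine measured by filtration and scintillation counting; Hill coefficient by log-plot regression, Bmax from Scatchard plot.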

Type 3 Phosphodiesterase = assay: Phosphodiesterase (PDE) Inhibition, Type 3 Phosphodiesterase; format: biochemical, bovine (coronary arteries); settings: Type 3 PDE, at 10^-5 M, substrate 3H-cAMP 1.0 μM
In short: as §1

[1] = test system: pentobarbital-anesthetized dog; assay: In Vivo Myocardial Inotropic Activity in Anesthetized Dog (CVAD); set-up: species or system dog (adult mongrel); settings: Canis lupus familiaris, iv; for change in vivo at 0.1 mg/kg: 0.10 mg/kg IV; for change in vivo at 0.31 mg/kg: 0.31 mg/kg IV; for change in vivo at 1 mg/kg: 1.00 mg/kg IV
In short: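 Adult mongrel dogs under pentobarbital anaesthesia (35 mg/kg IV, then 3.5 mg/kg/hour infusion), breathing spontaneously; increasing compound doses given IV via femoral vein, each over one minute. LV dP/dt max, heart rate (lead II ECG) and aortic pressure recorded by catheter transducers against ≥30 min control baseline; vehicle controls as needed.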

[2] = read-out: Percent Change Heart Rate
[3] = read-out: Percent Change Myocardial Contractility

% Inhibition of hydrolysis of 3H-cAMP (Type 1 Phosphodiesterase; substrate 3H-cAMP 1.0 μM): 6% | % Inhibition of hydrolysis of 3H-cGMP (Type 1 Phosphodiesterase; substrate 3H-cGMP 1.0 μM): 9% | IC50 (adenosine A1 receptor): 1540 nM | % Inhibition of hydrolysis of 3H-cAMP (Type 3 Phosphodiesterase): 33%
Structure (SMILES): Cc1nn(C)c2c(=O)[nH]c(-c3cccc(N)c3)nc12 [Example 12, 1,3-Dimethyl-5-(3-aminophenyl)pyrazolo[4,3-d]pyrimidine-7-one]
change in vivo at 0.1 mg/kg [1, 2]: -8% | change in vivo at 0.1 mg/kg [1, 3]: -1% | change in vivo at 0.31 mg/kg [1, 2]: -10% | change in vivo at 0.31 mg/kg [1, 3]: -19% | change in vivo at 1 mg/kg [1, 2]: -8% | change in vivo at 1 mg/kg [1, 3]: -12%
